Assay results as given in patent publication US9066518B2, “Heterocyclic compounds as pesticides” (Bayer CropScience AG, priority 2009, dated 2015).
Like-named read-outs stand apart in the source and are kept apart here.

Legend:
[1] = test system: green peach aphid (Myzus persicae); assay: Myzus test (spray treatment); type: in vivo; conditions: foliar, 144 h, read-out: activity (effect in %, aphids killed)
Experimental: (§1) Solvents: 78 parts by weight of acetone
• 1.5 parts by weight of dimethylformamide Emulsifier 0.5 part by weight of alkylaryl polyglycol ether
To produce a suitable preparation of active compound, 1 part by weight of active compound is mixed with the stated amounts of solvents and emulsifier, and the concentrate is diluted with emulsifier-containing water to the desired concentration. Discs of leaves of Chinese cabbage (Brassica pekinensis) which are infested by all stages of the green peach aphid (Myzus persicae) are sprayed with an active compound preparation of the desired concentration.
After 6 days, the effect in % is determined. 100% means that all aphids have been killed; 0% means that none of the aphids has been killed.

[2] = test system: caterpillars of the armyworm (Spodoptera frugiperda); assay: Spodoptera frugiperda test (spray treatment); type: in vivo; conditions: application rate 500 g/ha; after 7 days; maize leaf discs
Experimental: as §1
(§2) • 1.5 parts by weight of dimethylformamide Emulsifier: 0.5 part by weight of alkylaryl polyglycol ether
To produce a suitable preparation of active compound, 1 part by weight of active compound is mixed with the stated amounts of solvents and emulsifier, and the concentrate is diluted with emulsifier-containing water to the desired concentration. Discs of maize leaves (Zea mays) are sprayed with an active compound preparation of the desired concentration and, after drying, populated with caterpillars of the armyworm (Spodoptera frugiperda).
After 7 days, the effect in % is determined. 100% means that all caterpillars have been killed; 0% means that none of the caterpillars has been killed.

[3] = logP determination (neutral / HCOOH); conditions: HCOOH (formic acid), logP (HCOOH), HCOOH
[4] = test system: greenhouse red spider mite (Tetranychus urticae); assay: Tetranychus test; OP-resistant (spray treatment); type: in vivo; conditions: application rate 500 g/ha, after 6 days, bean leaf discs
Experimental: as §1, §2
To produce a suitable preparation of active compound, 1 part by weight of active compound is mixed with the stated amounts of solvents and emulsifier, and the concentrate is diluted with emulsifier-containing water to the desired concentration. Discs of bean leaves (Phaseolus vulgaris) which are infested by all stages of the greenhouse red spider mite (Tetranychus urticae) are sprayed with an active compound preparation of the desired concentration.
After 6 days, the effect in % is determined. 100% means that all spider mites have been killed; 0% means that none of the spider mites has been killed.

[5] = test system: larvae of the mustard beetle (Phaedon cochleariae); assay: Phaedon test (spray treatment); type: in vivo; conditions: application rate 500 g/ha; after 7 days; Chinese cabbage leaf discs
Text: Solvents: 78 parts by weight of acetone • • 1.5 parts by weight of dimethylformamide Emulsifier: 0.5 part by weight of alkylaryl polyglycol ether […] Discs of leaves of Chinese cabbage (Brassica pekinensis) are sprayed with an active compound preparation of the desired concentration and, after drying, populated with larvae of the mustard beetle (Phaedon cochleariae).

[6] = application rate 500 g/ha, after 6 days, Chinese cabbage leaf discs

Structure (SMILES) | pest or weed control at 500 g/ha [1, 6] | activity (effect in %, caterpillars killed) [2] | chromatographic logP [3] | activity (effect in %, spider mites killed) [4] | activity (effect in %, beetle larvae killed) [5] | pest or weed control at 500 g/ha ([1]; in Brassica rapa) | chromatographic logP (physchem) | logP (physchem)
COC(=O)CN(C)c1cccc(-c2cnn(-c3cccnc3)c2)n1 [Example 32] | 100% | 100% | 2.18 |  |  |  |  | 
c1cnc(-c2cccc(-c3cnn(-c4cncnc4)c3)n2)nc1 [Example 34] | 100% |  | 1.17 | 90% |  |  |  | 
Cn1c(C(F)(F)F)nn(-c2cccc(-c3cnn(-c4cccnc4)c3)n2)c1=O [Example 16] | 90% | 100% | 2.1 |  | 100% |  |  | 
c1cnc(-c2cccc(-c3cnn(-c4cccnc4)c3)n2)nc1 [Example 1, 2-[6-(1-Pyridin-3-yl-1H-pyrazol-4-yl)pyridin-2-yl]pyrimidine] |  |  |  |  |  | 100% | 1.36 | 1.52
FC(F)(F)c1ccc(-c2cnn(-c3cccnc3)c2)nc1 [Example 22] | 100% |  | 2.38 |  | 100% |  |  | 
c1cncc(-n2cc(-c3cccc(-c4ncon4)n3)cn2)c1 [Example 5, 2-[1,2,4]Oxadiazol-3-yl-6-(1-pyridin-3-yl-1H-pyrazol-4-yl)pyridine] |  |  |  |  |  | 100% |  | 1.54
